Laboratory results from ChEMBL document CHEMBL1150892, “Kalkipyrone, a toxic gamma-pyrone from an assemblage of the marine cyanobacteria Lyngbya majuscula and Tolypothrix sp” (J Nat Prod, 1998).
Values after ≈ are worked out from the molar mass of the structure shown.

How the values were obtained:
[1] = Ichthyotoxicity in gold fish after 1 hr; type: organism-based; conditions: carassius auratus, in vivo; read-out: LD50
[2] = Toxicity in Artemia salina; type: organism-based; conditions: in vivo, read-out: LD50 (the source's name)

SMILES: COc1oc(C/C=C(\C)C/C=C/C(C)=C/[C@@H](C)O)c(C)c(=O)c1C [KALKIPYRONE]
- LC50 at 1 h [1]: 2 µg/mL (≈ 6.02 µM)
- LC50 [2]: 1 µg/mL (≈ 3.01 µM)
